Columns and labels:
[1] = tested on: Glomerella lagenarium (Colletotrichum lagenarium); assay: Fungicidal activity against Glomerella lagenarium (Colletotrichum lagenarium), liquid culture, cucumber, preventative (anthracnose); format: cell-based; conditions: Colletotrichum orbiculare, liquid culture (PDB), growth inhibition measured photometrically 3-4 days after application, compared to untreated control
Method in brief: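 Glomerella lagenarium conidia in potato dextrose broth were exposed in 96-well plates to test compound diluted from DMSO stock with 0.025% Tween20 and incubated at 24 °C. Growth inhibition was read photometrically 3–4 days after application, as percent activity relative to untreated check.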

Phakopsora pachyrhizi = assay: Fungicidal activity against Phakopsora pachyrhizi, soybean, leaf disc preventative (Asian soybean rust); format: in vivo; conditions: foliar, 288 h, 12-14 days after application, compared to untreated control
Method in brief: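 Soybean leaf discs on water agar were sprayed with compound diluted in water, then inoculated one day later with a spore suspension on the lower leaf surface. After 24-36 h dark at 20 °C, 75% rh, discs were held at 20 °C, 12 h light/day. Percent disease control versus untreated assessed 12-14 days post-application.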

[2] = tested on: Puccinia recondita f. sp. tritici; assay: Fungicidal activity against Puccinia recondita f. sp. tritici, wheat, leaf disc curative (brown rust); format: in vivo; conditions: foliar, 144 h, wheat leaf segments, curative (applied 1 day after inoculation), 6-8 days after application, compared to untreated control
Method in brief: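 Wheat cv. Kanzler leaf segments on agar, inoculated with brown rust spores and kept dark at 19 °C, 75% rh; formulated compound sprayed 1 day after inoculation (curative). Incubated 19 °C, 75% rh, 12 h light/dark; percent disease control vs untreated scored 6–8 days after application.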

[3] = tested on: Puccinia recondita f. sp. tritici; assay: Fungicidal activity against Puccinia recondita f. sp. tritici, wheat, leaf disc preventative (brown rust); format: in vivo; conditions: foliar, wheat leaf segments, preventative (inoculated 1 day after application), 7-9 days after application, compared to untreated control
Method in brief: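 Wheat cv. Kanzler leaf segments on water agar sprayed with compound (DMSO stock diluted in water), then inoculated with spore suspension 1 day later. Incubated at 19 °C, 75% rh, 12 h light/12 h dark; percent disease control versus untreated scored at 7-9 days after application.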

O=C1CCON1c1ccc(-c2noc(C(F)(F)F)n2)cc1 [Compound C-2, 2-[4-[5-(trifluoromethyl)-1,2,4-oxadiazol-3-yl]phenyl]isoxazolidin-3-one]
inhibition of growth at 20 ppm [1]: ≥ 80% | pest or weed control at 200 ppm (Phakopsora pachyrhizi): ≥ 80% | pest or weed control at 200 ppm [2]: ≥ 80% | pest or weed control at 200 ppm [3]: ≥ 80% | melting point: 74 to 77 °C

Source: patent publication US10640497B2, “Microbiocidal oxadiazole derivatives” (SYNGENTA PARTICIPATIONS AG, priority 2015, dated 2020)
